Patent US6114310A, “Efflux pump inhibitors” (priority 1998, dated 2000)

Test system: Pseudomonas aeruginosa PAM1001
Test: microbe, parasite or virus in culture
Assay type: cell-based
Procedure: The activity of efflux pump inhibitors (EPI) in combination with fluoroquinolones, such as levofloxacin, is assessed by the checkerboard assay (Antimicrobial Combinations. In Antibiotics in Laboratory Medicine, Ed. Victor Lorian, M. D., Fourth edition, 1996, pp 333-338) using broth microdilution method performed as recommended by the NCCLS (National Committee for Clinical Laboratory Standards (NCCLS). 1997. Methods for Dilution of Antimicrobial Susceptibility Tests for Bacteria That Grow Aerobically--Fourth Edition; Approved Standard. NCCLS Document M7-A4, Vol 17 No.2). The test organism used is Pseudomonas aeruginosa PAM1001.
In this assay, multiple dilutions of two drugs, namely the EPI and levofloxacin, are being tested, alone and in combination, at concentrations equal to, above and below their respective minimal inhibitory concentrations (MICs).
Stock solutions are further diluted, according to the needs of a particular assay, in Mueller Hinton Broth (MHB). Stock solution can be stored at -80° C. Quinolones are solubilized according to the instructions of the manufacturers, at a concentration of 1 mg/ml. They are then further diluted in MHB. Stock solution can be stored at -80° C.
The checkerboard assay is performed in microtiter plates. Levofloxacin is diluted in the x axis, each column containing a single concentration of levofloxacin. The EPI is diluted in the y axis, each row containing an equal concentration of EPI. The result of these manipulations is that each well of the microtiter plate contains a unique combination of concentrations of the two agents. Each EPI are tested independently.
The assay is performed in MHB with a final bacterial inoculum of 5×10^5 CFU/ml (from an early-log phase culture). Microtiter plates are incubated during 20 h at 35° C. and are read using a microtiterplate reader (Molecular Devices) at 650 nm as well as visual observation using a microtiterplate reading mirror.

[1] = Table 1, EPI Conc. μg/ml (number not given; column between 10 and 40 μg/ml)
[2] = Table 2, EPI Conc. μg/ml (number not given; column between 10 and 40 μg/ml)
[3] = Table 3, EPI Conc. μg/ml (number not given; column between 10 and 40 μg/ml)
[4] = Table 4, EPI Conc. μg/ml (number not given; column between 10 and 40 μg/ml)

D-Lysyl-β-N-(Cyclopropylmethyl)alanine Quinoline-2-amide Trifluoroacetate [Example 29]
Levofloxacin MIC Against P. aeruginosa PAM1001 in Presence of Efflux Pump Inhibitor (EPI), Minimum Inhibitory Concentration (Table 1, EPI Conc. 0 μg/ml): 4 µg/mL
Levofloxacin MIC Against P. aeruginosa PAM1001 in Presence of Efflux Pump Inhibitor (EPI), Minimum Inhibitory Concentration (Table 1, EPI Conc. 0.625 μg/ml): 4 µg/mL
Levofloxacin MIC Against P. aeruginosa PAM1001 in Presence of Efflux Pump Inhibitor (EPI), Minimum Inhibitory Concentration (Table 1, EPI Conc. 5 μg/ml): 1 µg/mL
Levofloxacin MIC Against P. aeruginosa PAM1001 in Presence of Efflux Pump Inhibitor (EPI), Minimum Inhibitory Concentration (Table 1, EPI Conc. 10 μg/ml): 0.125 µg/mL
Levofloxacin MIC Against P. aeruginosa PAM1001 in Presence of Efflux Pump Inhibitor (EPI), Minimum Inhibitory Concentration (Table 1, EPI Conc. 40 μg/ml): 0.125 µg/mL
Levofloxacin MIC Against P. aeruginosa PAM1001 in Presence of Efflux Pump Inhibitor (EPI), Minimum Inhibitory Concentration [1]: 0.125 µg/mL
Levofloxacin MIC Against P. aeruginosa PAM1001 in Presence of Efflux Pump Inhibitor (EPI), Minimum Inhibitory Concentration (Table 2, EPI Conc. 0 μg/ml): 4 µg/mL
Levofloxacin MIC Against P. aeruginosa PAM1001 in Presence of Efflux Pump Inhibitor (EPI), Minimum Inhibitory Concentration (Table 2, EPI Conc. 0.625 μg/ml): 4 µg/mL
Levofloxacin MIC Against P. aeruginosa PAM1001 in Presence of Efflux Pump Inhibitor (EPI), Minimum Inhibitory Concentration (Table 2, EPI Conc. 5 μg/ml): 0.125 µg/mL
Levofloxacin MIC Against P. aeruginosa PAM1001 in Presence of Efflux Pump Inhibitor (EPI), Minimum Inhibitory Concentration (Table 2, EPI Conc. 10 μg/ml): 0.06 µg/mL
Levofloxacin MIC Against P. aeruginosa PAM1001 in Presence of Efflux Pump Inhibitor (EPI), Minimum Inhibitory Concentration (Table 2, EPI Conc. 40 μg/ml): 0.06 µg/mL
Levofloxacin MIC Against P. aeruginosa PAM1001 in Presence of Efflux Pump Inhibitor (EPI), Minimum Inhibitory Concentration [2]: 0.06 µg/mL
Levofloxacin MIC Against P. aeruginosa PAM1001 in Presence of Efflux Pump Inhibitor (EPI), Minimum Inhibitory Concentration (Table 3, EPI Conc. 0 μg/ml): 4 µg/mL
Levofloxacin MIC Against P. aeruginosa PAM1001 in Presence of Efflux Pump Inhibitor (EPI), Minimum Inhibitory Concentration (Table 3, EPI Conc. 0.625 μg/ml): 4 µg/mL
Levofloxacin MIC Against P. aeruginosa PAM1001 in Presence of Efflux Pump Inhibitor (EPI), Minimum Inhibitory Concentration (Table 3, EPI Conc. 5 μg/ml): 2 µg/mL
Levofloxacin MIC Against P. aeruginosa PAM1001 in Presence of Efflux Pump Inhibitor (EPI), Minimum Inhibitory Concentration (Table 3, EPI Conc. 10 μg/ml): 0.25 µg/mL
Levofloxacin MIC Against P. aeruginosa PAM1001 in Presence of Efflux Pump Inhibitor (EPI), Minimum Inhibitory Concentration (Table 3, EPI Conc. 40 μg/ml): 0.008 µg/mL
Levofloxacin MIC Against P. aeruginosa PAM1001 in Presence of Efflux Pump Inhibitor (EPI), Minimum Inhibitory Concentration (Table 3, EPI Conc. […]): 4 µg/mL
Levofloxacin MIC Against P. aeruginosa PAM1001 in Presence of Efflux Pump Inhibitor (EPI), Minimum Inhibitory Concentration [3]: 0.03 µg/mL
Levofloxacin MIC Against P. aeruginosa PAM1001 in Presence of Efflux Pump Inhibitor (EPI), Minimum Inhibitory Concentration (Table 4, EPI Conc. 0 μg/ml): 4 µg/mL
Levofloxacin MIC Against P. aeruginosa PAM1001 in Presence of Efflux Pump Inhibitor (EPI), Minimum Inhibitory Concentration (Table 4, EPI Conc. 0.625 μg/ml): 4 µg/mL
Levofloxacin MIC Against P. aeruginosa PAM1001 in Presence of Efflux Pump Inhibitor (EPI), Minimum Inhibitory Concentration (Table 4, EPI Conc. 5 μg/ml): 0.06 µg/mL
Levofloxacin MIC Against P. aeruginosa PAM1001 in Presence of Efflux Pump Inhibitor (EPI), Minimum Inhibitory Concentration (Table 4, EPI Conc. 10 μg/ml): 0.015 µg/mL
Levofloxacin MIC Against P. aeruginosa PAM1001 in Presence of Efflux Pump Inhibitor (EPI), Minimum Inhibitory Concentration (Table 4, EPI Conc. 40 μg/ml): 0.015 µg/mL
Levofloxacin MIC Against P. aeruginosa PAM1001 in Presence of Efflux Pump Inhibitor (EPI), Minimum Inhibitory Concentration [4]: 0.015 µg/mL

D-Lysyl-β-N-(Cyclopropylmethyl)alanine Quinoline-3-amide Trifluoroacetate [Example 27]
Levofloxacin MIC Against P. aeruginosa PAM1001 in Presence of Efflux Pump Inhibitor (EPI), Minimum Inhibitory Concentration (Table 1, EPI Conc. 0 μg/ml): 4 µg/mL
Levofloxacin MIC Against P. aeruginosa PAM1001 in Presence of Efflux Pump Inhibitor (EPI), Minimum Inhibitory Concentration (Table 1, EPI Conc. 0.625 μg/ml): 4 µg/mL
Levofloxacin MIC Against P. aeruginosa PAM1001 in Presence of Efflux Pump Inhibitor (EPI), Minimum Inhibitory Concentration (Table 1, EPI Conc. 5 μg/ml): 0.125 µg/mL
Levofloxacin MIC Against P. aeruginosa PAM1001 in Presence of Efflux Pump Inhibitor (EPI), Minimum Inhibitory Concentration (Table 1, EPI Conc. 10 μg/ml): 0.125 µg/mL
Levofloxacin MIC Against P. aeruginosa PAM1001 in Presence of Efflux Pump Inhibitor (EPI), Minimum Inhibitory Concentration (Table 1, EPI Conc. 40 μg/ml): 0.06 µg/mL
Levofloxacin MIC Against P. aeruginosa PAM1001 in Presence of Efflux Pump Inhibitor (EPI), Minimum Inhibitory Concentration [1]: 0.125 µg/mL
Levofloxacin MIC Against P. aeruginosa PAM1001 in Presence of Efflux Pump Inhibitor (EPI), Minimum Inhibitory Concentration (Table 2, EPI Conc. 0 μg/ml): 4 µg/mL
Levofloxacin MIC Against P. aeruginosa PAM1001 in Presence of Efflux Pump Inhibitor (EPI), Minimum Inhibitory Concentration (Table 2, EPI Conc. 0.625 μg/ml): 4 µg/mL
Levofloxacin MIC Against P. aeruginosa PAM1001 in Presence of Efflux Pump Inhibitor (EPI), Minimum Inhibitory Concentration (Table 2, EPI Conc. 5 μg/ml): 2 µg/mL
Levofloxacin MIC Against P. aeruginosa PAM1001 in Presence of Efflux Pump Inhibitor (EPI), Minimum Inhibitory Concentration (Table 2, EPI Conc. 10 μg/ml): 2 µg/mL
Levofloxacin MIC Against P. aeruginosa PAM1001 in Presence of Efflux Pump Inhibitor (EPI), Minimum Inhibitory Concentration (Table 2, EPI Conc. 40 μg/ml): 2 µg/mL
Levofloxacin MIC Against P. aeruginosa PAM1001 in Presence of Efflux Pump Inhibitor (EPI), Minimum Inhibitory Concentration [2]: 2 µg/mL
Levofloxacin MIC Against P. aeruginosa PAM1001 in Presence of Efflux Pump Inhibitor (EPI), Minimum Inhibitory Concentration (Table 3, EPI Conc. 0 μg/ml): 4 µg/mL
Levofloxacin MIC Against P. aeruginosa PAM1001 in Presence of Efflux Pump Inhibitor (EPI), Minimum Inhibitory Concentration (Table 3, EPI Conc. 0.625 μg/ml): 4 µg/mL
Levofloxacin MIC Against P. aeruginosa PAM1001 in Presence of Efflux Pump Inhibitor (EPI), Minimum Inhibitory Concentration (Table 3, EPI Conc. 5 μg/ml): 0.06 µg/mL
Levofloxacin MIC Against P. aeruginosa PAM1001 in Presence of Efflux Pump Inhibitor (EPI), Minimum Inhibitory Concentration (Table 3, EPI Conc. 10 μg/ml): 0.03 µg/mL
Levofloxacin MIC Against P. aeruginosa PAM1001 in Presence of Efflux Pump Inhibitor (EPI), Minimum Inhibitory Concentration (Table 3, EPI Conc. 40 μg/ml): 0.03 µg/mL
Levofloxacin MIC Against P. aeruginosa PAM1001 in Presence of Efflux Pump Inhibitor (EPI), Minimum Inhibitory Concentration [3]: 0.03 µg/mL
Levofloxacin MIC Against P. aeruginosa PAM1001 in Presence of Efflux Pump Inhibitor (EPI), Minimum Inhibitory Concentration (Table 4, EPI Conc. 0 μg/ml): 4 µg/mL
Levofloxacin MIC Against P. aeruginosa PAM1001 in Presence of Efflux Pump Inhibitor (EPI), Minimum Inhibitory Concentration (Table 4, EPI Conc. 0.625 μg/ml): 4 µg/mL
Levofloxacin MIC Against P. aeruginosa PAM1001 in Presence of Efflux Pump Inhibitor (EPI), Minimum Inhibitory Concentration (Table 4, EPI Conc. 5 μg/ml): 2 µg/mL
Levofloxacin MIC Against P. aeruginosa PAM1001 in Presence of Efflux Pump Inhibitor (EPI), Minimum Inhibitory Concentration (Table 4, EPI Conc. 10 μg/ml): 2 µg/mL
Levofloxacin MIC Against P. aeruginosa PAM1001 in Presence of Efflux Pump Inhibitor (EPI), Minimum Inhibitory Concentration (Table 4, EPI Conc. 40 μg/ml): 1 µg/mL
Levofloxacin MIC Against P. aeruginosa PAM1001 in Presence of Efflux Pump Inhibitor (EPI), Minimum Inhibitory Concentration (Table 4, EPI Conc. […]): 4 µg/mL
Levofloxacin MIC Against P. aeruginosa PAM1001 in Presence of Efflux Pump Inhibitor (EPI), Minimum Inhibitory Concentration [4]: 1 µg/mL
